Non-standard residues stand in square brackets, D forms with d. Residues, ends and D or L forms follow the SMILES beside them. d(hArg(Et2)) = CCN=C(NCC)NCCCC[C@@H](N)C(=O)O; hArg(Et2) = CCN=C(NCC)NCCCC[C@H](N)C(=O)O; dPhe(4-Cl) = N[C@H](Cc1ccc(Cl)cc1)C(=O)O; d2Nal = N[C@H](Cc1ccc2ccccc2c1)C(=O)O; d3Pal = N[C@H](Cc1cccnc1)C(=O)O
What was measured:
Homo sapiens [1] = organism: Homo sapiens; assay: Liver toxicity in human assessed as induction of drug-induced liver injury by measuring severity class index
Homo sapiens [2] = organism: Homo sapiens; assay: Liver toxicity in human assessed as induction of drug-induced liver injury by measuring verified drug-induced liver injury concern status
For DILI severity class in this document: key of the grades not given here.

| Compound | DILI_severity_class (Homo sapiens [1]) | DILI_Concern (Homo sapiens [2]) |
| --- | --- | --- |
| O=S(=O)(O)O[C@@H]1[C@@H](OS(=O)(=O)O)[C@H](O[C@@H]2CO[C@@H](O)[C@H](OS(=O)(=O)O)[C@H]2OS(=O)(=O)O)OC[C@H]1O | 3 | Ambiguous-Dili-Concern |
| COc1cc2c(cc1OC)C1CC(=O)C(CC(C)C)CN1CC2 (stereo not given) [TETRABENAZINE] | 3 | Ambiguous-Dili-Concern |
| C[C@@H](O)[C@@H]1NC(=O)[C@H](CCCCN)NC(=O)[C@@H](Cc2c[nH]c3ccccc23)NC(=O)[C@H](Cc2ccccc2)NC(=O)[C@@H](NC(=O)[C@H](N)Cc2ccccc2)CSSC[C@@H](C(=O)N[C@H](CO)[C@@H](C)O)NC1=O [OCTREOTIDE] | 2 | Less-Dili-Concern |
| O=C1CCCC(=O)C1C(=O)c1ccc(C(F)(F)F)cc1[N+](=O)[O-] [NITISINONE] | 7 | Ambiguous-Dili-Concern |
| CN(C)C(=N)N=C(N)N [METFORMIN] | 0 | Less-Dili-Concern |
| CNCC[C@@H](Oc1ccccc1C)c1ccccc1 [ATOMOXETINE] | 8 | Most-Dili-Concern |
| CCCC(C)C1(CC)C(=O)NC(=O)NC1=O (stereo not given) [PENTOBARBITAL] | 3 | Ambiguous-Dili-Concern |
| CCCCc1oc2ccc(NS(C)(=O)=O)cc2c1C(=O)c1ccc(OCCCN(CCCC)CCCC)cc1 [DRONEDARONE] | 7 | Most-Dili-Concern |
| CC(=O)O.CC(=O)O.CC/N=C(\NCC)NCCCC[C@H](NC(=O)[C@H](CC(C)C)NC(=O)[C@@H](CCCCN/C(=N/CC)NCC)NC(=O)[C@H](Cc1ccc(O)cc1)NC(=O)[C@H](CO)NC(=O)[C@@H](Cc1cccnc1)NC(=O)[C@@H](Cc1ccc(Cl)cc1)NC(=O)[C@@H](Cc1ccc2ccccc2c1)NC(C)=O)C(=O)N1CCC[C@H]1C(=O)N[C@H](C)C(N)=O [GANIRELIX ACETATE] (Ac-[d2Nal][dPhe(4-Cl)][d3Pal]SY[d(hArg(Et2))]L[hArg(Et2)]P[dA]-NH2) | 0 | No-Dili-Concern |
| CC(C)NCC(O)COc1ccc(CCOCC2CC2)cc1 (stereo not given) [BETAXOLOL] | 3 | Ambiguous-Dili-Concern |
| CO/N=C(\C(=O)N[C@@H]1C(=O)N2C(C(=O)[O-])=C(C[N+]3(C)CCCC3)CS[C@H]12)c1csc(N)n1 | 3 | Less-Dili-Concern |
| CC(C)(C)NCC(O)c1cc(O)cc(O)c1 (stereo not given) [TERBUTALINE] | 3 | Less-Dili-Concern |
| CN(C)CCC(c1ccc(Br)cc1)c1ccccn1 (stereo not given) [BROMPHENIRAMINE] | 0 | No-Dili-Concern |
| COCCc1ccc(OCC(O)CNC(C)C)cc1.COCCc1ccc(OCC(O)CNC(C)C)cc1.O=C(O)CCC(=O)O (stereo not given) [METOPROLOL SUCCINATE] | 3 | Ambiguous-Dili-Concern |
| O=C(O)COCCN1CCN(C(c2ccccc2)c2ccc(Cl)cc2)CC1 (stereo not given) [CETIRIZINE] | 3 | Less-Dili-Concern |
| CCCCCOC(=O)Nc1nc(=O)n([C@@H]2O[C@H](C)[C@@H](O)[C@H]2O)cc1F [CAPECITABINE] | 2 | Ambiguous-Dili-Concern |
| CC1Cc2ccccc2N1NC(=O)c1ccc(Cl)c(S(N)(=O)=O)c1 (stereo not given) [INDAPAMIDE] | 5 | Ambiguous-Dili-Concern |
| N[C@@H](Cc1cc(I)c(Oc2ccc(O)c(I)c2)c(I)c1)C(=O)O [LIOTHYRONINE] | 0 | No-Dili-Concern |

| Compound | DILI_severity_class (Homo sapiens [1]) | DILI_Concern (Homo sapiens [2]) |
| --- | --- | --- |
| CN1C(=O)CCS(=O)(=O)C1c1ccc(Cl)cc1 (stereo not given) [CHLORMEZANONE] | 8 | Most-Dili-Concern |
| CSCC[C@H](NC(=O)[C@H](Cc1ccc(OS(=O)(=O)O)cc1)NC(=O)[C@@H](N)CC(=O)O)C(=O)NCC(=O)N[C@@H](Cc1c[nH]c2ccccc12)C(=O)N[C@@H](CCSC)C(=O)N[C@@H](CC(=O)O)C(=O)N[C@@H](Cc1ccccc1)C(N)=O [SINCALIDE] | 0 | No-Dili-Concern |
| SIMETHICONE | 0 | No-Dili-Concern |
| COc1cc([C@@H]2c3cc4c(cc3[C@@H](O[C@@H]3O[C@@H]5CO[C@@H](c6cccs6)O[C@H]5[C@H](O)[C@H]3O)[C@H]3COC(=O)[C@H]23)OCO4)cc(OC)c1O [TENIPOSIDE] | 3 | Less-Dili-Concern |
| Nc1cc(-c2ccncc2)c[nH]c1=O [INAMRINONE] | 5 | Ambiguous-Dili-Concern |
| COc1ccc(Cl)cc1C(=O)NCCc1ccc(S(=O)(=O)NC(=O)NC2CCCCC2)cc1 [GLYBURIDE] | 3 | Less-Dili-Concern |
| COc1nc(N)nc2c1ncn2[C@@H]1O[C@H](CO)[C@@H](O)[C@@H]1O [NELARABINE] | 4 | Less-Dili-Concern |
| CCOC(=O)[C@H](CCc1ccccc1)N[C@H]1CCc2ccccc2N(CC(=O)O)C1=O [BENAZEPRIL] | 4 | Less-Dili-Concern |
| CC(C(=O)O)c1ccc(N2CC=CC2)c(Cl)c1 (stereo not given) [PIRPROFEN] | 8 | Most-Dili-Concern |
| COc1cc2c(cc1OC)[C@@H](Cc1cc(OC)c(OC)c(OC)c1)[N+](C)(CCCOC(=O)CC/C=C/CCC(=O)OCCC[N+]1(C)CCc3cc(OC)c(OC)cc3[C@H]1Cc1cc(OC)c(OC)c(OC)c1)CC2 (stereo not given in full) | 0 | No-Dili-Concern |
| N#C[C@@H]1C[C@@H]2C[C@@H]2N1C(=O)[C@@H](N)C12CC3CC(CC(O)(C3)C1)C2 [SAXAGLIPTIN ANHYDROUS] | 0 | No-Dili-Concern |
| Nc1ccc(C(=O)NCC(=O)O)cc1 [AMINOHIPPURIC ACID] | 0 | No-Dili-Concern |
| CCCCCCC(C)(C)c1cc(O)c2c(c1)OC(C)(C)C1CCC(=O)CC21 (stereo not given) [NABILONE] | 0 | No-Dili-Concern |
| CCC[C@@H]1C[C@@H](C(=O)N[C@@H]([C@H]2O[C@H](SC)[C@H](O)[C@@H](O)[C@H]2O)[C@@H](C)O)N(C)C1 [LINCOMYCIN] | 3 | Ambiguous-Dili-Concern |
| NC(=O)CC[C@@H]1NC(=O)[C@H](Cc2ccccc2)NC(=O)[C@H](Cc2ccc(O)cc2)NC(=O)CCSSC[C@@H](C(=O)N2CCC[C@H]2C(=O)N[C@H](CCCN=C(N)N)C(=O)NCC(N)=O)NC(=O)[C@H](CC(N)=O)NC1=O [DESMOPRESSIN] | 3 | Ambiguous-Dili-Concern |
| CC1=NN(c2ccc(C)c(C)c2)C(=O)/C1=N\Nc1cccc(-c2cccc(C(=O)O)c2)c1O.NCCO.NCCO [ELTROMBOPAG OLAMINE] | 4 | Most-Dili-Concern |
| COc1ccc2c(C(=O)c3ccc(Cl)cc3)c(C)n(CC(=O)O)c2c1 [CLOMETACIN] | 8 | Most-Dili-Concern |

— ChEMBL document CHEMBL4028802, “DILIrank: the largest reference drug list ranked by the risk for developing drug-induced liver injury in humans” (Drug Discov Today, 2016)
